Assay results: US20130095151A1, “BROAD SPECTRUM SUNSCREEN COMPOSITION COMPRISING 2 HYDROXY SULFOBETAINE OF CINNAMIDOALKYL AMINE” (GALAXY SURFACTANTS LTD., priority 2010, published 2013)

What was measured:
[1] = free acid, not neutralised; cited from earlier work
[2] = photostability: remaining content of AVB after exposing the formulas to sunlight, UV spectrophotometer vs unexposed control; type: physicochemical; details: in sunscreen creams with AVB/OCN
Protocol: Furthermore, the formulas I to 4 above where tested for photostability by exposing the formulas to sunlight for three hours (10 am to 1 pm, 2 Jun. 2011, Navi Mumbai, INDIA). The remaining content of AVB was measured using UV Spectrophotometer and compared to unexposed control.

SMILES | solubility in water [1] [% w/w] | photostability compared to PBSA and OMC [2]
O=S(=O)(O)c1ccc2[nH]c(-c3ccccc3)nc2c1 [Phenylbenzimidazole Sulfonic Acid] | 0.25 | –
COc1ccc(/C=C/C(=O)NCCC[N+](C)(C)CC(O)CS(=O)(=O)[O-])cc1 (centres unmarked) [SunBeat, 3-(N-p-Methoxycinnamidopropyl, N,N-Dimethyl Ammonium)-2-Hydroxypropane-1-Sulphonate] | – | enhanced photostability
